{"source": "patent US9545386B2", "about": "“Methods of treating infectious diseases” (SLIPPERY ROCK UNIVERSITY FOUNDATION, INC., priority 2007, dated 2017)", "key": {"[1]": {"system": "Trypanosoma avium trypomastigotes", "test": "In vitro antitrypanosomal bioassay, trypomastigote counts (Probit LC50/LC95)", "format": "cell-based", "details": "T. avium", "description": "(§1) In this study, 75 μl of Locke's nematode saline (L.N.S.) solution with approximately 1.0×10^5 trypomastigotes/ml of each organism were placed in 15 wells of a cell culture plate. For T. mega, T. conorhini and T. avium, stock concentrations of eryngial (1, 2, 3 and 4 mg/ml) with 0.04% (w/v) Triton X-100 were prepared in L.N.S. Triton X-100 acted as an emulsifier for eryngial. Triplicate samples of each eryngial concentration were prepared by adding 75 μl of the stock to the wells with trypomastigotes of each species. The number of trypanosomes in each well therefore approximated 5×10^4/ml, while final concentrations of eryngial in the wells were 0.5, 1.0, 1.5, and 2.0 mg/ml, respectively. Each sample also had 0.02% Trition X-100. The control samples had no eryngial. The number of trypomastigotes that were present in 20 μl sub-samples of each well was determined using a hemacytometer at 0, 24 and 48 hr. A count of the trypanosomes in each grid was recorded and the average number of organisms per milliliter was determined. The above procedure was repeated to determine the effect of eryngial on T. rangeli. However, the final concentration of eryngial, the test compound, ranged from 0.15 to 0.9 mg/ml."}, "[2]": {"system": "Trypanosoma conorhini trypomastigotes", "test": "In vitro antitrypanosomal bioassay, trypomastigote counts (Probit LC50/LC95)", "format": "cell-based", "details": "T. conorhini; for 24 hr LC95 ± 95% confidence intervals: 24 hr in vitro", "description": "as §1"}, "Escherichia coli": {"system": "Escherichia coli", "test": "Antibacterial MIC, 96 well broth dilution", "format": "cell-based", "details": "E. coli (gram-negative), 24 hr, 0.02% Triton X-100, highest concentration tested 10 mg/ml", "description": "(§2) Bacterial cultures were obtained from the American Type Culture Collection (ATCC), except for Streptococcus pyogenes, which was started from a Difco Bactrol disc. The other organisms were Enterococcus faecalis, Staphylococcus aureus, Escherichia coli, Salmonella typhimurium and Pseudomonas aeruginosa. Cultures were grown in Luria-Bertani (LB) broth. Fungi were obtained from Carolina Biological Supply Company (Aspergillus niger, Candida albicans and Cryptococcus neoformans); Presque Isle Cultures, Erie Pa. (Microsporum gypseum); or from ATCC (Penicillium marneffei). Fungal cultures were maintained in Sabouraud dextrose broth (SDB) or agar (SDA). All media components came from Difco.\n(§3) Tests were done in flat-bottomed 96 well cell culture plates (Costar). All samples were done in duplicate. Eryngial was suspended in culture medium plus 0.04% Triton-X to make a 2% (20 mg/ml) suspension, which was passed through a 0.22 μm filter to make a uniform emulsion. Serial doubling dilutions of eryngial in culture medium plus 0.04% Triton-X were prepared, and 75 μl was added to each well. 75 μl of cell or spore suspensions in culture medium also were added to each well. The final concentration of Triton-X was 0.02%, and the final concentration of eryngial was 1% (10 mg/ml) at the highest concentration tested.\n(§4) Overnight bacterial cultures in LB medium were diluted into fresh LB to an OD600 of 0.02 to 0.03, and then diluted 1000-fold again in LB. […] Blank wells for each concentration of eryngial were prepared with plain culture medium added.\n(§5) The 96 well plates were incubated at 37° for 24 hr (in a candle jar for S. pyogenes), and the OD630 was read on an EL800 universal microplate reader (Bio-Tek Instruments). Readings from duplicate wells were averaged, and readings from duplicate blank wells for each concentration of eryngial were subtracted to generate the final values. The minimum inhibitory concentration (MIC, μg/ml) was defined as the well with the highest dilution of eryngial in which no growth was observed."}, "Pseudomonas aeruginosa": {"system": "Pseudomonas aeruginosa", "test": "Antibacterial MIC, 96 well broth dilution", "format": "cell-based", "details": "P. aeruginosa (gram-negative), 24 hr, 0.02% Triton X-100, highest concentration tested 10 mg/ml", "description": "as §2, §3, §4, §5"}, "Salmonella typhimurium": {"system": "Salmonella typhimurium", "test": "Antibacterial MIC, 96 well broth dilution", "format": "cell-based", "details": "S. typhimurium (gram-negative), 24 hr, 0.02% Triton X-100, highest concentration tested 10 mg/ml", "description": "as §2, §3, §4, §5"}, "Aspergillus niger": {"system": "Aspergillus niger", "test": "Antifungal MIC/MFC, 96 well broth dilution", "format": "cell-based", "details": "A. niger; MIC and MFC not determined", "description": "as §2, §3\n(§6) Dimethyl sulfoxide (DMSO) also was used as a solvent for eryngial. A solution of 12.5% eryngial in DMSO was the initial solution. Doubling dilutions were carried out in DMSO. The DMSO-eryngial solutions were diluted 100-fold into growth medium, resulting in a final concentration of 1% DMSO, and 0.125% (1,250 μg/ml) eryngial as the highest concentration tested.\n(§7) The yeast form fungi, Candida albicans and Cryptococcus neoformans, were grown overnight in SDB. Cell density was determined by counting in a hemacytometer. Cells were diluted in fresh SDB to a density of 10^4/ml, and 75 μl, or 7.5×10^2 cells, was added to each well. The filamentous form fungi, Aspergillus niger, Microsporum gypseum and Penicillium marneffei, were grown on SDA until spores formed. The surface of the culture was rinsed vigorously with sterile distilled water to make a spore suspension, which was counted with a hemacytometer. The spores were diluted into SDB at 10^4/ml, and 75 μl, or 7.5×10^2 spores, were added to each well. The 96 well plates were incubated at room temperature in a humidified chamber for up to 96 hr, and culture growth was monitored microscopically. Growth was documented by photomicrographs at 24 hr intervals, and by determining OD630 in the microplate reader as for the bacterial cultures.\n(§8) To determine whether eryngial was merely inhibiting growth of the bacteria and fungi, or whether it also was having a killing effect, the minimum bactericidal concentrations (MBC, μg/ml) or minimum fungicidal concentrations (MFC, μg/ml) were determined. This was done by removing a 50 μl sample from a well after 24 hr (bacteria) or 96 hr (fungi) and diluting the samples in 5 ml of fresh culture medium. These tubes then were incubated at the appropriate temperature for 24-96 hr and observed for any signs of growth."}, "Candida albicans": {"system": "Candida albicans", "test": "Antifungal MIC/MFC, 96 well broth dilution", "format": "cell-based", "details": "C. albicans, 48-96 hr in vitro", "description": "as §2, §3, §6, §7, §8"}, "Cryptococcus neoformans": {"system": "Cryptococcus neoformans", "test": "Antifungal MIC/MFC, 96 well broth dilution", "format": "cell-based", "details": "C. neoformans, 48-96 hr in vitro", "description": "as §2, §3, §6, §7, §8"}, "Microsporum gypseum": {"system": "Microsporum gypseum", "test": "Antifungal MIC/MFC, 96 well broth dilution", "format": "cell-based", "details": "Nannizzia gypsea, M. gypseum, 48-96 hr in vitro", "description": "as §2, §3, §6, §7, §8"}, "Penicillium marneffei": {"system": "Penicillium marneffei", "test": "Antifungal MIC/MFC, 96 well broth dilution", "format": "cell-based", "details": "Talaromyces marneffei, P. marneffei, 48-96 hr in vitro", "description": "as §2, §3, §6, §7, §8"}, "S. stercoralis L3 larvae": {"system": "S. stercoralis L3 larvae", "details": "after 120 hr of incubation, Forbes et al. (unpublished); cited from earlier work"}, "[3]": {"details": "48 hr in vitro, listed as eryngial"}}}
{"smiles": "CCCCCCCCC/C=C/C=O", "note": "[Eryngial, trans-2-dodecenal]", "values": [{"measurement": "24 hr LC50 ± 95% confidence intervals", "setting": "[1]; 24 hr in vitro", "result": "1.19 (0.96-1.40) mg/ml"}, {"measurement": "24 hr LC95 ± 95% confidence intervals", "setting": "[1]; 24 hr in vitro", "result": "3.12 (2.57-4.16) mg/ml"}, {"measurement": "24 hr LC95 ± 95% confidence intervals", "setting": "[1]; 24 hr in vitro, listed as eryngial", "result": 3.12, "unit": "mg/mL"}, {"measurement": "48 hr LC50 ± 95% confidence intervals", "setting": "[1]; 48 hr in vitro", "result": "0.76 (0.63-0.87) mg/ml"}, {"measurement": "48 hr LC95 ± 95% confidence intervals", "setting": "[1]; 48 hr in vitro", "result": "2.31 (1.87-3.26) mg/ml"}, {"measurement": "48 hr LC95 ± 95% confidence intervals", "setting": "[1]; [3]", "result": 1.02, "unit": "mg/mL"}, {"measurement": "24 hr LC95 ± 95% confidence intervals", "setting": "[2]", "result": "2.91 (2.22-4.69) mg/ml"}, {"measurement": "24 hr LC95 ± 95% confidence intervals", "setting": "[2]; listed as eryngial", "result": 2.91, "unit": "mg/mL"}, {"measurement": "48 hr LC50 ± 95% confidence intervals", "setting": "[2]; 48 hr in vitro", "result": "0.68 (0.62-0.75) mg/ml"}, {"measurement": "48 hr LC95 ± 95% confidence intervals", "setting": "[2]; 48 hr in vitro", "result": "1.02 (0.91-1.20) mg/ml"}, {"measurement": "48 hr LC95 ± 95% confidence intervals", "setting": "[2]; [3]", "result": 1.14, "unit": "mg/mL"}, {"measurement": "inhibited by eryngial", "setting": "Escherichia coli", "result": "none"}, {"measurement": "inhibited by eryngial", "setting": "Pseudomonas aeruginosa", "result": "none"}, {"measurement": "inhibited by eryngial", "setting": "Salmonella typhimurium", "result": "none"}, {"measurement": "growth in dilutions of the test compound", "setting": "Aspergillus niger", "result": "growth, albeit reduced, occurred in all dilutions"}, {"measurement": "MIC", "setting": "Candida albicans", "result": 391, "unit": "µg/mL"}, {"measurement": "MBC", "setting": "Candida albicans; table title says MFCs", "result": 391, "unit": "µg/mL"}, {"measurement": "MIC", "setting": "Cryptococcus neoformans", "result": 78, "unit": "µg/mL"}, {"measurement": "MBC", "setting": "Cryptococcus neoformans; table title says MFCs", "result": 78, "unit": "µg/mL"}, {"measurement": "MIC", "setting": "Microsporum gypseum", "result": 39, "unit": "µg/mL"}, {"measurement": "MBC", "setting": "Microsporum gypseum; table title says MFCs", "result": 39, "unit": "µg/mL"}, {"measurement": "MIC", "setting": "Penicillium marneffei", "result": 39, "unit": "µg/mL"}, {"measurement": "MBC", "setting": "Penicillium marneffei; table title says MFCs", "result": 39, "unit": "µg/mL"}, {"measurement": "increase in effectiveness over ivermectin based on time (hr) taken to kill 50% (LT50)", "setting": "S. stercoralis L3 larvae", "result": 7.1, "unit": "fold"}]}
